Laboratory results taken from patent US10414798B2, “Cancer stem cell targeting peptide and use thereof” (AGRICULTURAL TECHNOLOGY RESEARCH INSTITUTE, priority 2015, dated 2019).
“Also recorded” adds a separate entry of the source.

Columns and labels:
[1] = Glycan microarray analysis; format: binding; settings: biotin-CSC HP, Cy3-streptavidin
Protocol: (§1) N-terminus biotin conjugated CSC HPs with the sequences listed in Table A below were synthesized by GeneDirex with purities higher than 95%. Biotin-CSC HPs were dissolved in DMSO to prepare 10 mg/mL stocks.
Glycan Array 100 microchips (Cat. # GA-Glycan-100) were purchased from RayBiotech and were processed following the manufacturer's instruction with some modifications. Briefly, after blocking with 400 μL Sample Diluent (Item E) at room temperature for 30 minutes, the biotin conjugated CSC HPs were diluted to 1 μg/400 μL with Sample Diluent, and hybridization reactions were carried out at room temperature for 2 hours. After washing, 400 μL of 1×Cy3-conjugated streptavidin was added to each well. The incubation chamber was covered with the plastic adhesive strips and the slide was covered with aluminum foil to avoid exposure to light during incubating in a dark room. The slide was incubated with Cy3-conjugated streptavidin at room temperature for 1 hour with gentle rocking or shaking. After thorough washing, the slide was drained completely, and the fluorescent signals on it were read by laser scanner Axon GenePix. The relative intensity on glycan X was defined as (average of X−negative control)/(positive control−negative control)×100%.
The CSC HPs developed could distinguish CSCs from CCs, and this phenomenon was found cross-species between human and mouse. It was very interesting to figure out the targets of these CSC HPs. There were no detectable fluorescent signals of FITC-CSC HPs remaining on the nitrocellulose membrane that had been blotted with CSC membrane proteins separated by SDS PAGE (data not shown). Glycan microarray (Glycan Array 100 microchips), on which 100 kinds of oligosaccharides were spotted 4 times, was utilized to analyze the possibilities of the interactions between oligosaccharides and CSC HPs. Biotin-CSC HPs as listed in Table 2 were hybridized with glycans on chips. The biotin-CSC HPs trapped on the chips were explored with Cy3-conjugated streptavidin, and the fluorescent signals on it were read by a laser scanner. Two major patterns were illustrated in FIGS. 3A-3F. The first one included glycan 16 (Gal-β-1,4-Glc-β-), 18 (Gal-α-1,4-Gal-β-1,4-Glc-β-), and 26 (GalNAc-β-1,3-Gal-α-1,4-Gal-β-1,4-Glc-β-) Globo series (FIG. 3A). Typical cases were CSC HP-1 and CHC HP-hP1 (FIG. 3C). […] The typical cases were CSC HP5, CSC HP6, CSC HP7, and CSC HP9 (FIG. 3C). Two malignancy and metastasis glycan markers, glycan 63 (Fuc-α-1,2-Gal-β-1,4-(Fuc-α-1,3)-GlcNAc-β-, also called Lewis Y epitope) and glycan 69 (Neu5Ac-α-2,6-Gal-β-1,3-(Neu5Ac-α-2,6)-GalNAc-β-), were also detected. […] Both of the two Neu5Ac-α-2,6-residues were necessary for CSC HPs binding (FIG. 3E).

PANC-1 CSCs = assay: Staining of tumorospheres with rhodamine B or fluorescein labeled CSC HPs; format: binding, human; settings: N-terminal rhodamine B or fluorescein conjugate, fluorescence
Protocol: [The procedure below names another cell line; the source lists this cell line under the same test.] (§2) 20 μg/mL of Rhodamine B labeled CSC HP1 (Rd-CSC HP-1) and CSC HP2 (Rd-CSC HP-2) as well as FITC labeled CSC HP11 (FITC-CSC HP-11) were directly used to stain EMT6 CSCs and CCs. Cells were counter-stained with DAPI.
(§3) According to the results above, CSC HP-1, CSC HP-2, CSC HP-3, CSC HP-8, CSC HP-9, CSC HP-10, and CSC HP-11 were selected and chemically synthesized with N-terminal conjugation with rhodamine B or fluorescein. […] It was of interest to determine whether these CSC HPs derived from mouse cancers could recognize human CSCs.

cancer cells (CCs) = assay: Parallel CC experiments with labeled CSC HPs; format: binding, mouse; settings: N-terminal rhodamine B or fluorescein conjugate, fluorescence
Protocol: as §2, §3

CT26 CSCs [2] = assay: Staining of CSCs with rhodamine B or fluorescein labeled CSC HPs; format: binding, mouse; settings: N-terminal rhodamine B or fluorescein conjugate, fluorescence
Protocol: [The procedure below names another cell line; the source lists this cell line under the same test.] as §2, §3

EMT6 CSCs = assay: as above; format: binding, mouse; settings: N-terminal rhodamine B or fluorescein conjugate, fluorescence
Protocol: as §2, §3

Hepa1-6 CSCs [3] = assay: as above; format: binding, mouse; settings: N-terminal rhodamine B or fluorescein conjugate, fluorescence
Protocol: [The procedure below names another cell line; the source lists this cell line under the same test.] as §2, §3

CT26 CSCs [4] = assay: M13 phage display selection, secondary CT26 CSC HP-library; format: binding, mouse; settings: from Table 1
Protocol: (§4) The M13 PhD-7 library (NEB, E8100) which contains 10^9 independent clones was purchased from New England Biolabs Inc. 10^13 plaque firming units (pfus) of M13 PhD-7 phages in 10 mL DMEM were pre-adsorbed by cancer cells in a T75 flask twice, each for 1 hour. Subsequently, the supernatant was transferred to a T25 flask containing 5×10^6 CSCs and incubated for 1 hour. The unbound and weakly associated phages were removed by centrifugation and suspension three times in DMEM/0/2% BSA. The cell pellet was suspended in 1 mL PBS containing 10^9 E. coli ER2738 and incubated in a shaker for 1 hour. Then 10 mL LB/5 mM MgCl2 was added. After being cultured over-night at 37° C., the cells were removed by centrifugation and phages in the supernatant were titrated. The aforementioned selection procedures were carried out for three rounds for EMT6 and PANC-1 to obtain the primary EMT6 CSC homing peptide (HP)- and PANC-1 CSC HP-library, respectively. Subsequently, M13 plaques were picked up to prepare the DNA for sequencing. […]
(§5) The primary CSC HP-library was selected directly once by either CT26 or Hepa1-6 CSCs to test the bias of CSC HP affinities to different kinds of cancers. […] Two new peptide sequences, KIYTTLD (CSC HP-9) (SEQ ID NO: 11) and NLQPPAY (CSC HP-12) (SEQ ID NO: 12), were read in the ESC unbound fraction (CSC HP-library) (Table 1).

Hepa1-6 CSCs [5] = assay: M13 phage display selection, secondary Hepa1-6 CSC HP-library; format: binding, mouse; settings: from Table 1
Protocol: as §4, §5

[6] = Glycan microarray analysis, major signal pattern; format: binding; settings: biotin-CSC HP, Cy3-streptavidin
Protocol: as §1
Glycan Array 100 microchips (Cat. # GA-Glycan-100) were purchased from RayBiotech and were processed following the manufacturer's instruction with some modifications. Briefly, after blocking with 400 μL Sample Diluent (Item E) at room temperature for 30 minutes, the biotin conjugated CSC HPs were diluted to 1 μg/400 μL with Sample Diluent, and hybridization reactions were carried out at room temperature for 2 hours. After washing, 400 μL of 1×Cy3-conjugated streptavidin was added to each well. […] After thorough washing, the slide was drained completely, and the fluorescent signals on it were read by laser scanner Axon GenePix. […]
The CSC HPs developed could distinguish CSCs from CCs, and this phenomenon was found cross-species between human and mouse. […] The biotin-CSC HPs trapped on the chips were explored with Cy3-conjugated streptavidin, and the fluorescent signals on it were read by a laser scanner. […] Two malignancy and metastasis glycan markers, glycan 63 (Fuc-α-1,2-Gal-β-1,4-(Fuc-α-1,3)-GlcNAc-β-, also called Lewis Y epitope) and glycan 69 (Neu5Ac-α-2,6-Gal-β-1,3-(Neu5Ac-α-2,6)-GalNAc-β-), were also detected. […]

[7] = test system: mouse embryonic stem cell (mESC); assay: M13 phage display selection, secondary CSC/ESC HP-library (ESC bound fraction); format: binding
Protocol: as §4, §5

Substance | binding to glycan 19 [1] | association with PANC-1 tumorospheres (PANC-1 CSCs) | binding to glycan 26 [1] | detection in parallel CC experiments (cancer cells (CCs)) | association with CT26 CSCs (CT26 CSCs [2]) | association with EMT6 CSCs (EMT6 CSCs) | association with Hepa1-6 CSCs (Hepa1-6 CSCs [3]) | signal on glycan 69 [1] | further results
ATYGNLW (Cancer Stem Cell Targeting Peptide) [CSC HP-5, synthetic peptide that targets cancer stem cells] | bound strongly | – | – | – | – | – | – | – | –
ELTPLTL (Cancer Stem Cell Targeting Peptide) [CSC HP-8, synthetic peptide that targets cancer stem cells] | – | definitely associated | weakly bound | not detectable | specifically associated | specifically associated | specifically associated | – | bias of CSC HP affinity to CT26 CSCs (CT26 CSCs [4]): more specific
FSGGGNH (Cancer Stem Cell Targeting Peptide) [CSC HP-3, synthetic peptide that targets cancer stem cells] | – | definitely associated | weakly bound | not detectable | specifically associated | specifically associated | specifically associated | – | bias of CSC HP affinity to Hepa1-6 CSCs (Hepa1-6 CSCs [5]): more specific
GLAPFNA (Cancer Stem Cell Targeting Peptide) [CSC HP-11, synthetic peptide that targets cancer stem cells] | – | definitely associated | – | not detectable | specifically associated | specifically associated | specifically associated | higher signals | –
GMMSSPP (Cancer Stem Cell Targeting Peptide) [CSC HP-2, synthetic peptide that targets cancer stem cells] | – | definitely associated | – | not detectable | specifically associated | specifically associated | specifically associated | – | –
GPKVTIW (Cancer Stem Cell Targeting Peptide) [CSC HP-hP1, synthetic peptide that targets cancer stem cells] | – | – | bound strongly and specifically | – | – | – | – | – | major pattern of glycan microarray signals [6]: Globo series; binding / signal on glycan 63 [1]: higher signals; also recorded: bound more strongly
GPSASRN (Cancer Stem Cell Targeting Peptide) [CSC HP-10, synthetic peptide that targets cancer stem cells] | – | definitely associated | – | not detectable | specifically associated | specifically associated | specifically associated | higher signals | –
GSPVMSW (Cancer Stem Cell Targeting Peptide) [CSC HP-hP2, synthetic peptide that targets cancer stem cells] | – | – | – | – | – | – | – | higher signals | –
HGGVRLY (Cancer Stem Cell Targeting Peptide) [CSC HP-7, synthetic peptide that targets cancer stem cells] | bound strongly | – | – | – | – | – | – | – | –
KIYTTLD (Cancer Stem Cell Targeting Peptide) [CSC HP-9, synthetic peptide that targets cancer stem cells] | bound strongly | definitely associated | – | not detectable | specifically associated | specifically associated | specifically associated | higher signals | –
SQPTWMF (Cancer Stem Cell Targeting Peptide) [CSC HP-1, synthetic peptide that targets cancer stem cells] | – | definitely associated | bound strongly and specifically | not detectable | specifically associated | specifically associated | specifically associated | – | major pattern of glycan microarray signals [6]: Globo series; enrichment in the ESC bound fraction [7]: further enriched; binding / signal on glycan 63 [1]: higher signals; also recorded: bound more strongly
YHMPALM (Cancer Stem Cell Targeting Peptide) [CSC HP-6, synthetic peptide that targets cancer stem cells] | bound strongly | – | – | – | – | – | – | – | –
YHQVKPH (Cancer Stem Cell Targeting Peptide) [CSC HP-hP3, synthetic peptide that targets cancer stem cells] | – | – | – | – | – | – | – | higher signals | –
